Assay results from the NIST ThermoML archive (doi:10.1016/j.jct.2014.04.016).
Several values for one entry are separate records, joined by “and”; a condition that tells them apart may be missing. Equal entries are not always repeated. Numbers after ± are expanded uncertainties.

Experiment: xn = mol fraction of the nth substance listed
Details: 100 kPa; for electrical conductivity: Alternating current cell with electrodes; for viscosity: Concentric cylinders viscometry; for mass density: Vibrating tube method

CCCCCCCCOS(=O)(=O)[O-].CCn1cc[n+](C)c1 [1-ethyl-3-methylimidazolium octyl sulfate] + O
Details	electrical conductivity	mass density	viscosity
287.1 K, Liquid, x1 = 0.1402	–	1076.8 ± 1 kg/m3	–
287.1 K, Liquid, x1 = 0.1605	–	1079.2 ± 1 kg/m3	–
287.1 K, Liquid, x1 = 0.2632	–	1088.7 ± 1 kg/m3	–
287.1 K, Liquid, x1 = 0.3076	0.375 S/m and 0.377 S/m	1091.2 ± 1 kg/m3	169.3 ± 13 mPa·s
287.6 K, Glass, x1 = 0.2632	0.469 ± 0.01 S/m	–	10720 ± 3600 mPa·s and 11920 ± 4200 mPa·s
287.6 K, Liquid, x1 = 0.2632	–	1088.5 ± 1 kg/m3 and 1088.8 ± 1 kg/m3	–
288.1 K, Glass, x1 = 0.1402	–	–	1042 ± 130 mPa·s
288.1 K, Glass, x1 = 0.1605	–	–	13780 ± 5200 mPa·s and 15800 ± 6400 mPa·s
288.1 K, Glass, x1 = 0.1766	0.844 S/m and 0.846 S/m	–	–
288.1 K, Glass, x1 = 0.2119	0.682 S/m and 0.681 S/m	–	–
288.1 K, Glass, x1 = 0.2632	0.48 S/m and 0.478 S/m	–	8600 ± 2600 mPa·s
288.1 K, Liquid, x1 = 0.0401	1.7 S/m	–	–
288.1 K, Liquid, x1 = 0.0586	1.67 ± 0.035 S/m	–	–
288.1 K, Liquid, x1 = 0.0803	1.51 ± 0.031 S/m	–	–
288.1 K, Liquid, x1 = 0.1197	–	1072.5 ± 1 kg/m3	78.76 ± 5.2 mPa·s
288.1 K, Liquid, x1 = 0.1402	1.03 ± 0.022 S/m	1076 ± 1 kg/m3	–
288.1 K, Liquid, x1 = 0.1605	0.932 S/m and 0.934 S/m	1078.8 ± 1 kg/m3 and 1078.7 ± 1 kg/m3	–
288.1 K, Liquid, x1 = 0.2632	–	1088.3 ± 1 kg/m3	–
288.1 K, Liquid, x1 = 0.3076	0.389 S/m and 0.388 S/m	1090.5 ± 1 kg/m3	159.4 ± 12 mPa·s
288.1 K, Liquid, x1 = 0.3555	0.293 S/m and 0.294 S/m	1092.7 ± 1 kg/m3	183.7 ± 14 mPa·s
288.1 K, Liquid, x1 = 0.4108	0.24 S/m and 0.237 S/m	1094.5 ± 1 kg/m3	206.8 ± 16 mPa·s
288.1 K, Liquid, x1 = 0.4688	0.166 S/m and 0.159 S/m	–	–
288.1 K, Liquid, x1 = 0.5001	0.15 ± 0.004 S/m	–	–
288.6 K, Glass, x1 = 0.2632	0.485 ± 0.01 S/m	–	–
289.1 K, Glass, x1 = 0.1402	–	–	396.1 ± 36 mPa·s
289.1 K, Glass, x1 = 0.1605	–	–	8364 ± 2500 mPa·s and 8406 ± 2500 mPa·s
289.1 K, Glass, x1 = 0.1766	0.868 S/m and 0.871 S/m	–	–
289.1 K, Glass, x1 = 0.2632	0.489 ± 0.01 S/m	–	3435 ± 680 mPa·s
289.1 K, Liquid, x1 = 0.1197	1.21 ± 0.025 S/m	–	–
289.1 K, Liquid, x1 = 0.1402	1.06 ± 0.022 S/m	1074.9 ± 1 kg/m3	–
289.1 K, Liquid, x1 = 0.1605	0.964 S/m and 0.963 S/m	1078.4 ± 1 kg/m3	–
289.1 K, Liquid, x1 = 0.2632	0.494 ± 0.015 S/m	1087.8 ± 1 kg/m3	–
289.1 K, Liquid, x1 = 0.3076	–	1089.8 ± 1 kg/m3	150 ± 11 mPa·s
289.6 K, Glass, x1 = 0.2632	–	–	1082 ± 130 mPa·s
289.6 K, Liquid, x1 = 0.2632	0.503 ± 0.018 S/m	1087.9 ± 1 kg/m3	–
290.1 K, Glass, x1 = 0.1402	–	–	213.6 ± 16 mPa·s
290.1 K, Glass, x1 = 0.1605	–	–	5299 ± 1300 mPa·s and 4500 ± 1000 mPa·s
290.1 K, Glass, x1 = 0.1766	0.895 S/m and 0.899 S/m	–	–
290.1 K, Glass, x1 = 0.2119	0.728 ± 0.016 S/m	–	–
290.1 K, Liquid, x1 = 0.1402	–	1074.2 ± 1 kg/m3	–
290.1 K, Liquid, x1 = 0.1605	–	1077.9 ± 1 kg/m3 and 1078 ± 1 kg/m3	–
290.1 K, Liquid, x1 = 0.2632	0.511 ± 0.019 S/m	–	–
290.1 K, Liquid, x1 = 0.3076	–	1089.1 ± 1 kg/m3	141.3 ± 10 mPa·s
291.1 K, Glass, x1 = 0.1402	–	–	122.8 ± 8.6 mPa·s
291.1 K, Glass, x1 = 0.1605	–	–	2756 ± 490 mPa·s and 2752 ± 490 mPa·s
291.1 K, Glass, x1 = 0.1766	0.924 S/m and 0.925 S/m	–	–
291.1 K, Glass, x1 = 0.2119	0.759 S/m and 0.757 S/m	–	–
291.1 K, Liquid, x1 = 0.0803	1.63 ± 0.034 S/m	–	–
291.1 K, Liquid, x1 = 0.1402	1.12 ± 0.024 S/m	1073.7 ± 1 kg/m3	–
291.1 K, Liquid, x1 = 0.1605	1.02 ± 0.021 S/m	1077.5 ± 1 kg/m3	–
291.1 K, Liquid, x1 = 0.2632	0.527 ± 0.011 S/m	1085.5 ± 1 kg/m3	118.9 ± 8.3 mPa·s
291.1 K, Liquid, x1 = 0.3076	0.441 S/m and 0.442 S/m	1088.1 ± 1 kg/m3	133.1 ± 9.4 mPa·s
291.1 K, Liquid, x1 = 0.3555	0.332 ± 0.007 S/m	–	–
291.1 K, Liquid, x1 = 0.4108	0.271 ± 0.006 S/m	–	–
291.1 K, Liquid, x1 = 0.4688	0.192 ± 0.004 S/m	–	–
292.1 K, Glass, x1 = 0.1605	–	–	1353 ± 180 mPa·s and 597.3 ± 60 mPa·s
292.1 K, Glass, x1 = 0.1766	0.951 S/m and 0.953 S/m	–	–
292.1 K, Glass, x1 = 0.2119	0.779 S/m and 0.781 S/m	–	–
292.1 K, Liquid, x1 = 0.1402	–	1073.2 ± 1 kg/m3	80.8 ± 5.3 mPa·s
292.1 K, Liquid, x1 = 0.1605	–	1076.9 ± 1 kg/m3 and 1076.7 ± 1 kg/m3	–
292.1 K, Liquid, x1 = 0.2632	0.543 ± 0.014 S/m	–	–
293.1 K, Glass, x1 = 0.1605	–	–	589.1 ± 59 mPa·s and 232.2 ± 18 mPa·s
293.1 K, Glass, x1 = 0.1766	0.977 S/m and 0.979 S/m	–	–
293.1 K, Glass, x1 = 0.2119	0.805 ± 0.017 S/m	–	–
293.1 K, Liquid, x1 = 0.0401	1.92 S/m	–	–
293.1 K, Liquid, x1 = 0.0586	1.91 ± 0.039 S/m	–	–
293.1 K, Liquid, x1 = 0.0803	1.72 ± 0.036 S/m	–	–
293.1 K, Liquid, x1 = 0.1197	1.36 ± 0.029 S/m	–	59.82 ± 3.9 mPa·s
293.1 K, Liquid, x1 = 0.1402	1.19 ± 0.025 S/m	–	69.89 ± 4.6 mPa·s
293.1 K, Liquid, x1 = 0.1605	1.08 S/m	–	–
293.1 K, Liquid, x1 = 0.2119	0.804 ± 0.017 S/m	–	–
293.1 K, Liquid, x1 = 0.2632	0.564 S/m and 0.562 S/m	–	106.4 ± 7.3 mPa·s
293.1 K, Liquid, x1 = 0.3076	0.477 S/m and 0.479 S/m	–	117.6 ± 8.1 mPa·s
293.1 K, Liquid, x1 = 0.3555	0.357 S/m and 0.359 S/m	–	–
293.1 K, Liquid, x1 = 0.4108	0.294 S/m and 0.293 S/m	–	–
293.1 K, Liquid, x1 = 0.4688	0.214 ± 0.005 S/m	–	–
293.1 K, Liquid, x1 = 0.5001	0.19 S/m and 0.191 S/m	–	–
